B1: 1-deoxy-D-xylulose 5-phosphate reductoisomerase (Synechocystis sp. (strain PCC 6803 / Kazusa)), Q55663 (protein)
chain: MVKRISILGSTGSIGTQTLDIVTHHPDAFQVVGLAAGGNVALLAQQVAEFRPEIVAIRQAEKLEDLKAAVAELTDYQPMYVVGEEGVVEVARYGDAESVVTGIVGCAGLLPTMAAIAAGKDIALANKETLIAGAPVVLPLVEKMGVKLLPADSEHSAIFQCLQGVPEGGLRRIILTASGGAFRDLPVERLPFVTVQDALKHPNWSMGQKITIDSATLMNKGLEVIEAHYLFGLDYDHIDIVIHPQSIIHSLIEVQDTSVLAQLGWPDMRLPLLYALSWPERIYTDWEPLDLVKAGSLSFREPDHDKYPCMQLAYGAGRAGGAMPAVLNAANEQAVALFLQEKISFLDIPRLIEKTCDLYVGQNTASPDLETILAADQWARRTVLENSACVATRP

Tests used:
[1] = molecular target: T1, 1-deoxy-D-xylulose 5-phosphate reductoisomerase (Synechocystis sp. (strain PCC 6803 / Kazusa), UniProt Q55663); test: Binding affinity against Synechocystis strain PCC6803 DXP reductoisomerase; design: species or system Synechocystis sp. PCC 6803
T1 sequence (Q55663 whole entry): B1 chain

[2] = molecular target: T2, 1-deoxy-D-xylulose 5-phosphate reductoisomerase (Escherichia coli K-12, UniProt P45568); test: Inhibitory activity against Escherichia coli deoxyxylulose 5-phosphate reductoisomerase
T2 sequence (P45568 whole entry): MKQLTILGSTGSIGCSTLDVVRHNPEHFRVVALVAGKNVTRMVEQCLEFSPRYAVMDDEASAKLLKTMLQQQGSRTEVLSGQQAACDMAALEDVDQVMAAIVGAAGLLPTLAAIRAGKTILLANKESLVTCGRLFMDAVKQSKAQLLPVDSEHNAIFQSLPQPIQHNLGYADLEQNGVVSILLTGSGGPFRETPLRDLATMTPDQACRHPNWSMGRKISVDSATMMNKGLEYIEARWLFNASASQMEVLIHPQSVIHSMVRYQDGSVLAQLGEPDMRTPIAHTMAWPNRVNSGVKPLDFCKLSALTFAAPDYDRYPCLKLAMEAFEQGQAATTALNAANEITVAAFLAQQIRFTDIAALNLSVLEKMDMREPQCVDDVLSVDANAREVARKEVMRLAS

[3] = substrate: CC(=O)[C@@H](O)[C@H](O)CCP(=O)(O)O; test: Michaelis-Menten constant for Synechocystis strain PCC6803 DXP reductoisomerase; conditions: Synechocystis sp. PCC 6803

Molecule	Ki [1] [µM]	Ki [2] [µM]	Km [3] [µM]
NC(=O)[C@@H](O)[C@H](O)COP(=O)(O)O	90	–	–
CC(=O)C[C@H](O)COP(=O)(O)O	150	800	–
CC(=O)[C@@H](O)[C@@H](O)COP(=O)(O)O	180	–	–
CC(=O)[C@@H](O)CCOP(=O)(O)O	30	120	–
O=CN(O)CCCP(=O)(O)O [FOSMIDOMYCIN]	0.021	–	–
CCC(=O)[C@@H](O)[C@H](O)COP(=O)(O)O	630	–	–
B1	–	–	690
